Measurements from patent US10912827B2 (priority 2016, dated 2021).
Where two headings read alike, the source gives them in different places.

Experiments:
[1] = tested on: HBV-transgenic mice (Strain HBV1.3.32); type: in vivo, mouse
[2] = tested on: HBV-transgenic mice (Strain HBV1.3.32); details: mouse, in vivo
HBVtg mice = details: mouse, in vivo
[3] = tested on: chronic Hepatitis B virus (HBV)-infection; details: cited from earlier work
[4] = middle and high antigenemic HBVtg mice, day 34

| Molecule | titers of anti-HBc antibodies, c-di-AMP compared to CpG/PCEP regimen ([1]; day 34, p<0.05) | impact on serum HBeAg levels ([1]; high antigenemic HBVtg mice, HBsAg+HBcAg prime twice, MVA-S/core boost day 28, day 34) | HBV replication, detected indirectly by HBeAg levels ([1]; i.m. route) | HBsAg to anti-HBs seroconversion [1, 4] | anti-HBc responses [1, 4] | HBV replication, detected indirectly by HBeAg levels ([1]; s.c./i.p. routes) | adjuvant efficacy for therapeutic protein prime-MVA boost vaccination [2] | difference in magnitude of HBV-specific CD8+ T cell responses between c-di-AMP and CpG/PCEP regimens [2] | efficacy as adjuvant for therapeutic protein prime-MVA boost vaccination [2] | efficacy in i.m. versus s.c./i.p. application routes [2] | liver damage / increase in ALT (HBVtg mice) | patients in whom therapy is curative [3] |
| --- | --- | --- | --- | --- | --- | --- | --- | --- | --- | --- | --- | --- |
| Nc1ncnc2c1ncn2[C@@H]1O[C@@H]2COP(=O)(O)O[C@H]3[C@@H](O)[C@H](n4cnc5c(N)ncnc54)O[C@@H]3COP(=O)(O)O[C@H]2[C@H]1O [c-di-AMP, bis-(3′,5′)-cyclic dimeric adenosine monophosphate] | significantly higher titers | Neither c-di-AMP nor CpG/PCEP immunization protocol had an impact | lower HBV replication | HBsAg to anti-HBs seroconversion in all examined HBVtg mice | significant anti-HBc responses | lower HBV replication | potent adjuvant | no statistically significant difference | very potent adjuvant | equally effective | mild T-cell-induced liver damage | – |
| Interferon α | – | – | – | – | – | – | – | – | – | – | – | 15-20% |
